For one test, the target named is T1, 5-HT2C (Homo sapiens, UniProt P28335).
T1 sequence (P28335 33-458): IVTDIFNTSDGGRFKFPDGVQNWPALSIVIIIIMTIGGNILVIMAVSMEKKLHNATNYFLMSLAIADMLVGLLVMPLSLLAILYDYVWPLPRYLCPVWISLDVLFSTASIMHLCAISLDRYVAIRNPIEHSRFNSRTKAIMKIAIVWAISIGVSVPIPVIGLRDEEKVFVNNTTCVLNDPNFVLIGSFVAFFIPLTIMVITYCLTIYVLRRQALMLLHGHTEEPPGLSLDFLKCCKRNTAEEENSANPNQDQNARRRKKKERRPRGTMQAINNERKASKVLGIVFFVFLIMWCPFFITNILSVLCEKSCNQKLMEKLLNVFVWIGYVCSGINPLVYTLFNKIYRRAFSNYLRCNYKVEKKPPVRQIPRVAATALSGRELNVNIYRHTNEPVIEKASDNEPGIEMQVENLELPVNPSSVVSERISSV
Kind of test: BRET Gq dissociation, 5-HT2C. Details: expressed in transfected cells; host or cells: HEK293T, transient. As to conditions: for Emax: read-out: 5-HT2C Gq Dissociation (BRET) EMAX ± SEM (%5-HT). Type of test: cell-based. Background: In BRET a luciferase serves as donor, and the signal depends on an acceptor being close.

For the next test, the system named is male C57BL/6J mice. Kind of test: Blockade of agonist-induced HTR by pretreatment. As to conditions: pretreatment of mice with test compound. Type of test: in vivo, mouse. The protocol: Vehicle or the NMDA receptor antagonist PCP (5 mg/kg) was injected IP 10 min after SC administration of vehicle or 25N-NB1-Nap (16), and then the mice were placed in the test chambers 10 min later for a 60-min assessment of locomotor activity. (C). […] Mice were treated with vehicle or M100907 (0.03 mg/kg SC) 10 min prior to vehicle or PCP (5 mg/kg IP): animals were placed in the test chambers 10 min after treatment with PCP.
Male C57BL/6J mice (6-8 weeks old) from Jackson Labs (Bar Harbor, ME, USA) were used for the behavioral experiments. The mice were housed on a reversed light-dark cycle (lights on at 1900 h, off at 0700 h) in an AAAC-approved vivarium at the University of California San Diego. Mice were housed up to four per cage in a climate-controlled room and with food and water provided ad libitum except during behavioral testing. Testing was performed between 1000 and 1800 h (during the dark phase of the light-dark cycle). The studies were conducted in accordance with National Institutes Health (NIH) guidelines and were approved by the University of California San Diego Institutional Animal Care and Use Committee.
The mice were allowed to recover from the magnet implantation surgeries for at least 1 week prior to behavioral testing. HTR experiments were conducted in a well-lit room, and the mice were allowed to habituate to the room for at least 1 h prior to testing. Head twitches was assessed in a 12-cm diameter glass cylinder surrounded by a magnetometer coil. Coil voltage was low-pass filtered (2 kHz), amplified, and digitized (20-kHz sampling rate) using a Powerlab/8SP with LabChart v 7.3.2 (ADInstruments, Colorado Springs, CO, USA). […] HTR counts were analyzed using one-way ANOVAs. Dunnett's test was used for post hoc comparisons.

Test [1] concerns the target T2, 5-HT2A (Homo sapiens, UniProt P28223). Kind of test: NanoLuc internalization assay. The note with it: 60 min. Type of test: cell-based.
The target in test [2] is T2, 5-HT2A. Kind of test: Antagonism of 5-HT-induced Gq signaling (BRET). Type of test: cell-based. Details: expressed in transfected cells; host or cells: HEK293T, transient.

“Also recorded” adds a separate entry of the source.

T2 sequence (P28223 whole entry): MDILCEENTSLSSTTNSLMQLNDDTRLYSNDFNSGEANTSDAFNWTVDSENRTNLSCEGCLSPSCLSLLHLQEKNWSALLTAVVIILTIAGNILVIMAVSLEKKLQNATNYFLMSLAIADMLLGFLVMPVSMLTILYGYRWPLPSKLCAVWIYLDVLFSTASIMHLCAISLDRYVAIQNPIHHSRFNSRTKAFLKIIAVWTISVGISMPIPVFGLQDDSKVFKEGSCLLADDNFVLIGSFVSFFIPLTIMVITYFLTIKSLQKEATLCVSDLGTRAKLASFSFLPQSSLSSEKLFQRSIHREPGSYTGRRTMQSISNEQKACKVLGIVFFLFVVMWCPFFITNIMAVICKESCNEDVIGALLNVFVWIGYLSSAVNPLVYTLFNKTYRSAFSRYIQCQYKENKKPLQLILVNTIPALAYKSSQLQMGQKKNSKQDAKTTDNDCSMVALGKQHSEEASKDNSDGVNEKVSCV

As a reminder, the EC50 is the midpoint of the concentration-response curve. A higher EC50 goes with a less potent agent. As a reminder, the Emax is the maximal effect, on the per cent scale that the assay sets. For the compound `COc1cc([N+](=O)[O-])c(OC)cc1CCN` [2C-N (1), 2-(2,5-dimethoxy-4-nitrophenyl)ethan-1-amine, reference compound], on 5-HT2C, the EC50 was 12.6 nM and the maximal effect (Emax) stood at 78.4 ± 2.5%.
For the compound `COc1cc([N+](=O)[O-])c(OC)cc1CCNCc1cccc2ccccc12` [25N-N-1-Nap (16), [2-(2,5-dimethoxy-4-nitrophenyl)ethyl][(naphthalen-1-yl)methyl]amine], the “Blockade of the HTR induced by DOI” value in the test with male C57BL/6J mice is “blocked the HTR”. For the same compound, at 5-HT2C, the EC50 is 18.6 nM and the Emax stood at 34.1 ± 4.4%. Besides, on 5-HT2A [1], the “Internalization of 5-HT2A receptors” value is “potent and strong internalization”. Further, the “Antagonism of 5-HT-induced 5-HT2A-mediated Gq signaling” value on 5-HT2A [2] was “antagonized”.
With `COc1cc([N+](=O)[O-])c(OC)cc1CCNCc1ccccc1` [25N-NB (2), Benzyl[2-(2,5-dimethoxy-4-nitrophenyl)ethyl]amine], at 5-HT2C, the EC50 was 8.51 nM and the maximal effect (Emax) turned out to be 89.4 ± 2.3%.
Consider `COc1cc([N+](=O)[O-])c(OC)cc1CCNCc1cccc(C)c1O` [25N-NB-2-OH-3-Me (18), 2-({[2-(2,5-dimethoxy-4-nitrophenyl)ethyl]amino}methyl)-6-methylphenol], for which the “Blockade of the HTR induced by DOI” value in the test on male C57BL/6J mice is “blocked the HTR; also recorded: can block the HTR”. On 5-HT2C, the 50% effective concentration (EC50) is 2.14 nM and the Emax turned out to be 45.8 ± 2.4%.
`COc1cc([N+](=O)[O-])c(OC)cc1CCNCc1ccccc1I` [25N-NBI (10)]: on 5-HT2C, it took 87.1 nM to reach a half-maximal effect (EC50) and the Emax is 71.5 ± 2.2%.
Consider `COc1cc([N+](=O)[O-])c(OC)cc1CCNCc1ccccc1[N+](=O)[O-]` [25N-NBNO2 (15), [2-(2,5-dimethoxy-4-nitrophenyl)ethyl][(2-nitrophenyl)methyl]amine], for which, at 5-HT2C, a half-maximal response (EC50) required 148 nM and the Emax stood at 61.3 ± 4.4%.
Take `COc1cc([N+](=O)[O-])c(OC)cc1CCNCc1ccccc1OC` [25N-NBOMe (4), [2-(2,5-dimethoxy-4-nitrophenyl)ethyl] [(2-methoxyphenyl)methyl]amine]: on 5-HT2C, a half-maximal response (EC50) required 0.302 nM and the maximal effect (Emax) was found to be 112 ± 2.8%. In addition, the “Internalization of 5-HT2A receptors” value at 5-HT2A [1] is given as “strong internalization”.
As for `COc1cc([N+](=O)[O-])c(OC)cc1CCNCc1ccccc1-c1ccccc1` [25N-NBPh (17), ({[1,1′-biphenyl]-2-yl}methyl)[2-(2,5-dimethoxy-4-nitrophenyl)ethyl]amine], the “Blockade of the HTR induced by DOI” value with male C57BL/6J mice is “blocked the HTR”. Moreover, at 5-HT2C, the EC50 was 646 nM and the Emax amounted to 96.9 ± 10%. In addition, the “Internalization of 5-HT2A receptors” value on 5-HT2A [1] was “potent and strong internalization”. Also, the “Antagonism of 5-HT-induced 5-HT2A-mediated Gq signaling” value on 5-HT2A [2] is reported as “antagonized”.
